The target of one experiment is T1, CDK1/cyclinB (Homo sapiens, UniProt P06493).
T1 construct: purchased Millipore
In words: CDK1/cyclinB IMAP fluorescence polarization kinase assay. Format: biochemical. The conditions noted are these: 52 μM ATP, two hours at room temperature. Here is the method: (§1) Kinase assays were performed on recombinant purified enzymes using the non-radioactive IMAP fluorescence polarization assay format.
(§2) Compound stocks were prepared and diluted in DMSO and were added to kinase reactions at a 1/100 dilution for a final concentration of 1% DMSO. The components were added together to final concentrations listed in the tables below and incubated for two hours at room temperature.
(§3) The reactions were stopped by addition of stop solution.
(§4) CDK9/CDK1/CDK7: final stop concentration is 1× Developer buffer (85% A/15% B), IMAP beads 1/400
(§5) The samples were allowed to incubate for one more hour at room temperature and then the fluorescence polarization was measured. The plate normalized millipolarization (mP) values were plotted against the log of compound concentration for each compound and IC50 values were calculated using the spotfire IC50 calculator and confirmed by visual analysis.

A further experiment addresses T2, CDK2/cyclinA (Homo sapiens, UniProt P24941).
T2 construct: purchased Millipore
Description: CDK2/cyclinA IMAP fluorescence polarization kinase assay. Format: biochemical. The conditions noted are these: 4.68 μM ATP, two hours at room temperature. Here is the method:
as §1, §2, §3
CDK2: final stop concentration is 1× Developer buffer (100% A), IMAP beads 1/400
as §5

In another experiment the target is T3, CDK9/cyclinT1 (Homo sapiens, UniProt P50750).
T3 construct: purchased Millipore
In words: CDK9/cyclinT1 IMAP fluorescence polarization kinase assay. Format: biochemical. The conditions noted are these: 6 μM ATP, two hours at room temperature. The protocol: as §1, §2, §3, §4, §5

The subject of experiment [1] is RNA polymerase II CTD serine2 phosphorylation in Hep3B cells. In words: H5 (Ser2) Ab High Content Screen: RNA polymerase II CTD serine2 phosphorylation Assay. It is filed as cell-based. The conditions noted are these: Homo sapiens, compounds for 2 hours, H5 antibody nuclear staining. Here is the method:
H5 (also referred as Ser2) Ab High Content Screen: RNA polymerase II CTD serine2 phosphorylation Assay
1. Cells are plated into 384 well plates: 30 μl of Hep3B cells (4,000 cells/30 μl) in DMEM with 3% FBS are plated into wells of a tissue culture treated clear bottomed 384 well plate. Cells are allowed to adhere during an overnight incubation.
2. Cells are treated with compounds for two hours: 10 μl of DMEM with 3% FBS is added to each well with a final concentration of DMSO equal to 1%. Cells are incubated with compounds for 2 hours.
3. Cells are fixed and permeabilized. Cells are washed with 30 mM HEPES pH=7.3 then fixed in 4% paraformaldehyde in 30 mM HEPES pH=7.3 for one hour at room temperature. The fix is removed by washing the cells with Tris buffered saline (TBS) and the cells are permeabilized by incubation in TBS with 0.5% triton X-100 for 30 minutes at room temperature. Triton is removed by washing the cells with TBS.
4. Cells are stained with H5 monoclonal antibody and nuclei are stained with Hoechst dye 33342: Block cells by incubating in TBS with 1% Bovine serum albumin (BSA) for one hour at room temperature. Incubate primary H5 Ab (1/250) overnight at 4 degrees in PBS with 1% BSA and 0.1% Tween-20. The next day wash cells with TBS. Add secondary antibody, anti-IgM labeled with cy5 (1/450), and Hoecsht dye 33342 (10 μg/ml) in TBS with 1% BSA and incubate one hour at room temperature. Wash cells with PBS.
5. Measure staining using the In-cell Analyzer system from GE Healthcare. Nuclei were located using the Hoecsht 33342 dye signal and H5 Antibody staining was quantified by measuring cy5 label. Nuclear intensity of H5 staining was plotted against the log of compound concentration for each compound and IC-50 values were calculated using the spotfire IC-50 calculator and confirmed by visual analysis.

Some results are limits rather than exact numbers.

For 24 molecules, IC50 results are on record in patent US20100093776A1, “Organic Compounds and Their Uses” (Novartis AG, priority 2006, published 2010).

T1 sequence (P06493 whole entry): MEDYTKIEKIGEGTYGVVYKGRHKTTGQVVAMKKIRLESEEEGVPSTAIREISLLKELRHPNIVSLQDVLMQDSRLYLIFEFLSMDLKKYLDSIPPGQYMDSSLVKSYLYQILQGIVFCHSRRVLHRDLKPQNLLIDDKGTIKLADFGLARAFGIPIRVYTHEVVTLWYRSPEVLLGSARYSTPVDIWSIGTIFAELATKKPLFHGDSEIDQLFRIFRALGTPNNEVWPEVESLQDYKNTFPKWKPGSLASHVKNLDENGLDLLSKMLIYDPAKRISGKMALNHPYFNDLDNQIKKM
T1 sequence (P14635 whole entry partner): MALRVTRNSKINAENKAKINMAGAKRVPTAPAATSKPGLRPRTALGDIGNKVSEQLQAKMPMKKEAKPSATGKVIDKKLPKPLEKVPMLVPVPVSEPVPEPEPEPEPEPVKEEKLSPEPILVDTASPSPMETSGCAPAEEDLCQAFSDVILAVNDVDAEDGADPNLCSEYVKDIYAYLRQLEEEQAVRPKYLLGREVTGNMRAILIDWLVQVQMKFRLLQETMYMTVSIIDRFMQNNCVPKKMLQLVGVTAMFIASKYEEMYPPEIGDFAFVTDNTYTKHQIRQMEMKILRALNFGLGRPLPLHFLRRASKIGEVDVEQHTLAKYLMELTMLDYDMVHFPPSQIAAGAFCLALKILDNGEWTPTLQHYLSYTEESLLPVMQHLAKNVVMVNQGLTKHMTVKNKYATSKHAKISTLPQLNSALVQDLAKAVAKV
T3 sequence (P50750 whole entry): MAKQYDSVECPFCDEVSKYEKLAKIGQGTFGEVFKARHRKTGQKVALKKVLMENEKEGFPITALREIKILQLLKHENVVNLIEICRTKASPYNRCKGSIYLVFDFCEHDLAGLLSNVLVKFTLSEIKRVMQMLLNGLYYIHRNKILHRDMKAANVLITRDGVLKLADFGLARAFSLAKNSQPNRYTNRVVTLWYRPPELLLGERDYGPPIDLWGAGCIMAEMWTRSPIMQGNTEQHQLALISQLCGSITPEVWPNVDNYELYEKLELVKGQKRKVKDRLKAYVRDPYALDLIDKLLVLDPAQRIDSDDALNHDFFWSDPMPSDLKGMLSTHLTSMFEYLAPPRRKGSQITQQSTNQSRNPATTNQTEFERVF
T3 sequence (O60563 whole entry partner): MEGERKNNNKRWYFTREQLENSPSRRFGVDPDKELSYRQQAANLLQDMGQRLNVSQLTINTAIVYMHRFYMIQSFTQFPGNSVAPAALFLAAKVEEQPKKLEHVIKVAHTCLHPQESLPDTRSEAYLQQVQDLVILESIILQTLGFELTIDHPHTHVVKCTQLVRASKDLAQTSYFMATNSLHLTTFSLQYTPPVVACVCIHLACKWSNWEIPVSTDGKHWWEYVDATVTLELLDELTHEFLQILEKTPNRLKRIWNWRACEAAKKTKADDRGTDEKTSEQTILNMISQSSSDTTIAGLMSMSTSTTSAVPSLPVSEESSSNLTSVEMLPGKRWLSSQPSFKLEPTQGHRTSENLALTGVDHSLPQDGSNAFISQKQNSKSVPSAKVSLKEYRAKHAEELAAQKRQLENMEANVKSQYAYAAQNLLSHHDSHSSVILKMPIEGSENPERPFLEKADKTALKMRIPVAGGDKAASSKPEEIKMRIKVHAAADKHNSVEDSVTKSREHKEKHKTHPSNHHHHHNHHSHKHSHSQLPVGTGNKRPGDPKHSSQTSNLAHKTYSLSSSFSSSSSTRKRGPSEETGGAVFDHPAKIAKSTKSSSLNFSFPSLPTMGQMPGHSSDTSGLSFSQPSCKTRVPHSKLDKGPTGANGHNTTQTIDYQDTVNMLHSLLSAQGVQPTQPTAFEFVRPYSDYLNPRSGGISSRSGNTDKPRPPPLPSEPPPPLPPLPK

Usually IC50 stands for the concentration that inhibits the measured activity by half. Low values mean inhibition by little substance, high ones a need for much substance. As to `Cn1ccc2c(-c3ccnc(Nc4cccc(Cl)c4)n3)cccc21` [Compound 3, (3-Chloro-phenyl)-[4-(1-methyl-1H-indol-4-yl)-pyrimidin-2-yl]-amine], the 50% inhibitory concentration (IC50) was 5 to 15 µM against CDK1/cyclinB, under 5 µM on CDK2/cyclinA and under 5 µM at CDK9/cyclinT1.

As to `CCn1ccc2c(-c3ccnc(Nc4cccc(Cl)c4)n3)cccc21` [Compound 4, (3-Chloro-phenyl)-[4-(1-ethyl-1H-indol-4-yl)-pyrimidin-2-yl]-amine], the IC50 was under 5 µM at CDK1/cyclinB, 5 to 15 µM against CDK2/cyclinA and under 5 µM on CDK9/cyclinT1.

On to `CCOC(=O)Cn1ccc2c(-c3ccnc(Nc4cccc(Cl)c4)n3)cccc21` [Compound 5, Ethyl {4-[2-(3-chloro-phenylamino)-pyrimidin-4-yl]-indol-1-yl}acetate], for which the IC50 is over 50 µM against CDK1/cyclinB, over 50 µM against CDK2/cyclinA and under 5 µM on CDK9/cyclinT1.

On to `Clc1cccc(Nc2nccc(-c3cccc4c3ccn4Cc3ccccc3)n2)c1` [Compound 6, [4-(1-Benzyl-1H-indol-4-yl)-pyrimidin-2-yl]-(3-chloro-phenyl)-amine], for which the IC50 was over 50 µM against CDK1/cyclinB, over 50 µM against CDK2/cyclinA and under 5 µM against CDK9/cyclinT1.

For the molecule `OCCn1ccc2c(-c3ccnc(Nc4cccc(Cl)c4)n3)cccc21` [Compound 7, 2-{4-[2-(3-chloroaniline)-pyrimidin-4-yl]-indol-1-yl}-ethanol], the IC50 against CDK1/cyclinB was 5 to 15 µM; at CDK2/cyclinA it was under 5 µM; against CDK9/cyclinT1, under 5 µM.

With `OCCCn1ccc2c(-c3ccnc(Nc4cccc(Cl)c4)n3)cccc21` [Compound 8, 3-{4-[2-(3-Chloro-phenylamino)-pyrimidin-4-yl]-indol-1-yl}-propan-1-ol], the IC50 was 5 to 15 µM against CDK1/cyclinB, under 5 µM against CDK2/cyclinA and under 5 µM at CDK9/cyclinT1.

As for `Clc1cccc(Nc2nccc(-c3cccc4c3ccn4CCN3CCOCC3)n2)c1` [Compound 9, (3-Chloro-phenyl)-{4-[1-(2-morpholin-4-yl-ethyl)-1H-indol-4-yl]-pyrimidin-2-yl}-amine], the IC50 on CDK1/cyclinB is over 50 µM; at CDK2/cyclinA, 5 to 15 µM; at CDK9/cyclinT1, under 5 µM; in experiment [1], 15 to 50 µM.

Take `CN(C)CCn1ccc2c(-c3ccnc(Nc4cccc(Cl)c4)n3)cccc21` [Compound 10, (3-Chloro-phenyl)-{4-[1-(2-dimethylamino-ethyl)-1H-indol-4-yl]-pyrimidin-2-yl}-amine]: the IC50 at CDK1/cyclinB, on CDK2/cyclinA and on CDK9/cyclinT1 was under 5 µM in each case.

Take `CN(C)CCCn1ccc2c(-c3ccnc(Nc4cccc(Cl)c4)n3)cccc21` [Compound 11, (3-Chloro-phenyl)-{4-[1-(3-dimethylamino-propyl)-1H-indol-4-yl]-pyrimidin-2-yl}-amine]: the IC50 is 5 to 15 µM against CDK1/cyclinB, under 5 µM against CDK2/cyclinA and under 5 µM against CDK9/cyclinT1.

As for `CNC(=O)Cn1ccc2c(-c3ccnc(Nc4cccc(Cl)c4)n3)cccc21` [Compound 12, 2-{4-[2-(3-Chloro-phenylamino)-pyrimidin-4-yl]-indol-1-yl}-N-methyl-acetamide], the IC50 on CDK1/cyclinB, against CDK2/cyclinA and against CDK9/cyclinT1 was under 5 µM in each case.

As to `CN(C)C(=O)Cn1ccc2c(-c3ccnc(Nc4cccc(Cl)c4)n3)cccc21` [Compound 14, 2-{4-[2-(3-Chloro-phenylamino)-pyrimidin-4-yl]-indol-1-yl}-N,N-dimethyl-acetamide], the IC50 against CDK1/cyclinB is 5 to 15 µM; against CDK2/cyclinA it was under 5 µM; against CDK9/cyclinT1, under 5 µM.

For the molecule `CC(C)(C)NC(=O)Cn1ccc2c(-c3ccnc(Nc4cccc(Cl)c4)n3)cccc21` [Compound 15, N-tert-Butyl-2-{4-[2-(3-chloro-phenylamino)-pyrimidin-4-yl]-indol-1-yl}-acetamide], the IC50 on CDK1/cyclinB, at CDK2/cyclinA and against CDK9/cyclinT1 was under 5 µM in each case.

With `CC(C)CNC(=O)Cn1ccc2c(-c3ccnc(Nc4cccc(Cl)c4)n3)cccc21` [Compound 16, 2-{4-[2-(3-Chloro-phenylamino)-pyrimidin-4-yl]-indol-1-yl}-N-isobutyl-acetamide], the values for the IC50 against CDK1/cyclinB, at CDK2/cyclinA and at CDK9/cyclinT1 were over 50 µM, over 50 µM and under 5 µM, respectively.

Regarding `O=C(Cn1ccc2c(-c3ccnc(Nc4cccc(Cl)c4)n3)cccc21)NCc1ccccc1` [Compound 17, N-Benzyl-2-{4-[2-(3-chloro-phenylamino)-pyrimidin-4-yl]-indol-1-yl}-acetamide], the IC50 on CDK1/cyclinB, at CDK2/cyclinA and on CDK9/cyclinT1 was over 50 µM each time.

`O=C(Cn1ccc2c(-c3ccnc(Nc4cccc(Cl)c4)n3)cccc21)NCCO` [Compound 18, 2-{4-[2-(3-Chloro-phenylamino)-pyrimidin-4-yl]-indol-1-yl}-N-(2-hydroxy-ethyl)-acetamide]: the IC50 is 5 to 15 µM at CDK1/cyclinB, under 5 µM at CDK2/cyclinA and under 5 µM against CDK9/cyclinT1.

Take `NCCNC(=O)Cn1ccc2c(-c3ccnc(Nc4cccc(Cl)c4)n3)cccc21` [Compound 19, N-(2-Amino-ethyl)-2-{4-[2-(3-chloro-phenylamino)-pyrimidin-4-yl]-indol-1-yl}-acetamide]: the IC50 on CDK1/cyclinB is 5 to 15 µM; at CDK2/cyclinA, over 50 µM; at CDK9/cyclinT1, under 5 µM.

In the case of `O=C(Cn1ccc2c(-c3ccnc(Nc4cccc(Cl)c4)n3)cccc21)N1CCNCC1` [Compound 20, 2-{4-[2-(3-Chloro-phenylamino)-pyrimidin-4-yl]-indol-1-yl}-1-piperazin-1-yl-ethanone], the IC50 against CDK1/cyclinB is over 50 µM; at CDK2/cyclinA, over 50 µM; against CDK9/cyclinT1, under 5 µM.

In the case of `NC1CCN(C(=O)Cn2ccc3c(-c4ccnc(Nc5cccc(Cl)c5)n4)cccc32)CC1` [Compound 21, 1-(4-Amino-piperidin-1-yl)-2-{4-[2-(3-chloro-phenylamino)-pyrimidin-4-yl]-indol-1-yl}-ethanone], the IC50 on CDK1/cyclinB was over 50 µM; on CDK2/cyclinA, 15 to 50 µM; on CDK9/cyclinT1 it was under 5 µM.

In the case of `O=C(Cn1ccc2c(-c3ccnc(Nc4cccc(Cl)c4)n3)cccc21)NCC1CCCN1` (stereo not shown) [Compound 22, 2-{4-[2-(3-Chloro-phenylamino)-pyrimidin-4-yl]-indol-1-yl}-N-pyrrolidin-2-ylmethyl-acetamide], the half-inhibitory concentration (IC50) on CDK1/cyclinB is 5 to 15 µM; on CDK2/cyclinA it was under 5 µM; at CDK9/cyclinT1, under 5 µM.

Take `O=C(Cn1ccc2c(-c3ccnc(Nc4cccc(Cl)c4)n3)cccc21)NCCN1CCCC1` [Compound 23, 2-{4-[2-(3-Chloro-phenylamino)-pyrimidin-4-yl]-indol-1-yl}-N-(2-pyrrolidin-1-yl-ethyl)-acetamide]: the values for the IC50 on CDK1/cyclinB, against CDK2/cyclinA and against CDK9/cyclinT1 were 15 to 50 µM, over 50 µM and under 5 µM, respectively.

Regarding `O=C(O)Cn1ccc2c(-c3ccnc(Nc4cccc(Cl)c4)n3)cccc21` [Compound 24, {4-[2-(3-Chloro-phenylamino)-pyrimidin-4-yl]-indol-1-yl}-acetic acid], the results for the IC50 on CDK1/cyclinB, against CDK2/cyclinA and on CDK9/cyclinT1 were 15 to 50 µM, 5 to 15 µM and under 5 µM, respectively.

`Cc1cnc(Nc2cccc(Cl)c2)nc1-c1cccc2[nH]ccc12` [Compound 30, (3-Chloro-phenyl)-[4-(1H-indol-4-yl)-5-methyl-pyrimidin-2-yl]-amine]: the IC50 was 15 to 50 µM at CDK1/cyclinB, 15 to 50 µM on CDK2/cyclinA and under 5 µM at CDK9/cyclinT1.

Turning to `COc1cnc(Nc2cccc(S(N)(=O)=O)c2)nc1-c1cccc2[nH]ccc12` [Compound 33, 3-[4-(1H-Indol-4-yl)-5-methoxy-pyrimidin-2-ylamino]-benzenesulfonamide], the IC50 at CDK1/cyclinB, on CDK2/cyclinA and at CDK9/cyclinT1 was under 5 µM in each case.

With `NS(=O)(=O)c1cccc(Nc2ncc(F)c(-c3cccc4[nH]ccc34)n2)c1` [Compound 34, 3-[5-Fluoro-4-(1H-indol-4-yl)-pyrimidin-2-ylamino]-benzenesulfonamide], the concentration for half-maximal inhibition (IC50) against CDK1/cyclinB, against CDK2/cyclinA and against CDK9/cyclinT1 was under 5 µM each time.
